Values of other authors in patent US4746734A, “Partially methylated cyclodextrins and process for producing the same” (Sanraku Incorporated, priority 1985, dated 1988).

Details: background statement

solubility in water (description of prior art): particularly low in water solubility
Structure (SMILES): OC[C@H]1O[C@@H]2O[C@H]3[C@H](O)[C@@H](O)[C@@H](O[C@H]4[C@H](O)[C@@H](O)[C@@H](O[C@H]5[C@H](O)[C@@H](O)[C@@H](O[C@H]6[C@H](O)[C@@H](O)[C@@H](O[C@H]7[C@H](O)[C@@H](O)[C@@H](O[C@H]8[C@H](O)[C@@H](O)[C@@H](O[C@H]1[C@H](O)[C@H]2O)O[C@@H]8CO)O[C@@H]7CO)O[C@@H]6CO)O[C@@H]5CO)O[C@@H]4CO)O[C@@H]3CO [β-CD]
